Experimental data reported in US6858625B1, “Quinolinecarboxylic acid derivative or salts thereof” (Wakunaga Pharmaceutical Co., Ltd., priority 1999, dated 2005).
Values after ≈ are worked out from the molar mass of the structure shown.

Assays:
[1] = system: Isolated coccus 1 (clinically-isolated quinolone resistant pneumococci); test: MIC against clinically-isolated quinolone resistant pneumococci, agar plates with 5% defibrinated sheep blood; type: cell-based; conditions: Isolated coccus 1, quinolone resistant pneumococcus
Method: (§1) Using agar plates added with 5% defibrinated sheep blood, minimum growth inhibition concentrations (MICs; μg/mL) against certain pneumococci were determined in accordance with the standard method of the Japan Society of Chemotherapy [Chemotherapy, 29(1), 76 (1981)].

[2] = system: Isolated coccus 5 (clinically-isolated quinolone resistant pneumococci); test: as above; type: cell-based; conditions: Isolated coccus 5, quinolone resistant pneumococcus
Method: as §1

[3] = Phototoxicity test (ear abnormality after UV exposure); type: in vivo, ICR mice; conditions: 40 mg/kg i.v., 4 h UV 320-400 nm; for Ear abnormality (point): 0 = no abnormality to 3 = severe erythema or edema; for Ear abnormality (frequency): affected/total mice
Method: A phototoxicity test was performed by the following procedure. Female ICR mice (5 to 6 weeks old) were intravenously administered with the test compounds (40 mg/kg/10 mL), respectively, and were exposed for 4 hours to ultraviolet rays (320 to 400 nm, 1.8 mW/cm^2/sec). […] Ear abnormality was ranked by the following standards: no abnormality (0 point), mild erythema (1 point), medium erythema (2 points), and severe erythema or edema (3 points) The results are presented in Table 2.

MRSA W200 = test: Minimum growth inhibitory concentration (MIC), standard method of the Japan Society of Chemotherapy; type: cell-based; conditions: Staphylococcus aureus
Method: (§2) Their minimum growth inhibitory concentrations (MICs: μg/mL) were determined in accordance with the standard method of the Japan Society of Chemotherapy [Chemotherapy, 29(1), 76 (1981)].

S. epidermidis IFO12293 = test: as above; type: cell-based; conditions: Staphylococcus epidermidis
Method: as §2

P. aeruginosa IFO3445 = test: as above; type: cell-based; conditions: Pseudomonas aeruginosa
Method: as §2

S. marcescens IFO3736 = test: as above; type: cell-based; conditions: Serratia marcescens
Method: as §2

P. vulgaris IFO3167 = test: as above; type: cell-based; conditions: Proteus vulgaris
Method: as §2

E. faecalis IFO12580 = test: as above; type: cell-based; conditions: Enterococcus faecalis
Method: as §2

B. subtilis ATCC6633 = test: as above; type: cell-based; conditions: Bacillus subtilis
Method: as §2

S. aureus 209P = test: as above; type: cell-based; conditions: Staphylococcus aureus
Method: as §2

M. luteus IFO12708 = test: as above; type: cell-based; conditions: Micrococcus luteus
Method: as §2

E. coli NIHJ-JC2 = test: as above; type: cell-based; conditions: Escherichia coli, NIHJJC2
Method: as §2

P. aeruginosa E-2 = test: as above; type: cell-based; conditions: Pseudomonas aeruginosa, E2
Method: as §2

K. pneumoniae KC-1 = test: as above; type: cell-based; conditions: Klebsiella pneumoniae, KC1
Method: as §2

[4] = In vivo pharmacokinetic study (absorption and excretion in dogs); parameters: species or system beagles; conditions: for AUC(0-t) / Cmax / Tmax / half-life / Urinary excretion rate: male beagles, per os; for AUC(0-t) / Cmax / Tmax / half-life: 10 mg/mL/kg in 0.5% methyl cellulose; for Urinary excretion rate: 10 mg/mL/kg, urine up to 24th hour
Method: An investigation was made on the absorption and excretion of the compounds of the present invention in and from dogs. A 0.5% suspension of one of the test compounds in methyl cellulose (10 mg/mL/kg) was forcedly administered per os to 2-4 years old, male beagles fasted for 16 to 17 hours. After the administration, blood samples were collected on the 0.25th, 0.5th, 1st, 2nd, 4th, 6th, 8th and 24th hours, and serum samples were obtained. To determine urinary excretion rates, urine samples were also collected up to 24th hour after the administration. The concentrations of the test compound in the serum samples and urine samples were measured by the paper disk method making use of Bacillus subtilis ATCC6633 as a test bacterium, and the absorption and excretion were ranked.

[5] = beagle, dog, po, 10 mg/kg, serum

MIC [1] [µg/mL] | MIC [2] [µg/mL] | MIC (MRSA W200) [µg/mL] | MIC (S. epidermidis IFO12293) [µg/mL] | MIC (P. aeruginosa IFO3445) [µg/mL] | MIC (S. marcescens IFO3736) [µg/mL] | MIC (P. vulgaris IFO3167) [µg/mL] | MIC (E. faecalis IFO12580) [µg/mL] | MIC (B. subtilis ATCC6633) [µg/mL] | MIC (S. aureus 209P) [µg/mL] | MIC (M. luteus IFO12708) [µg/mL] | MIC (E. coli NIHJ-JC2) [µg/mL] | MIC (P. aeruginosa E-2) [µg/mL] | MIC (K. pneumoniae KC-1) [µg/mL] | Structure (SMILES) | Ear abnormality (point) ([3]; 0 hour after exposure) | Ear abnormality (frequency) ([3]; 0 hour after exposure) | Ear abnormality (point) ([3]; 24 hours after exposure) | Ear abnormality (frequency) ([3]; 24 hours after exposure) | Ear abnormality (point) ([3]; 48 hours after exposure) | Ear abnormality (frequency) ([3]; 48 hours after exposure) | also measured
0.03 (≈ 0.0586 µM) | 0.12 (≈ 0.234 µM) | 0.013 (≈ 0.0254 µM) | 0.025 (≈ 0.0488 µM) | 0.78 (≈ 1.52 µM) | 1.56 (≈ 3.05 µM) | 0.1 (≈ 0.195 µM) | 0.39 (≈ 0.761 µM) | 0.025 (≈ 0.0488 µM) | 0.013 (≈ 0.0254 µM) | 0.39 (≈ 0.761 µM) | 0.025 (≈ 0.0488 µM) | 1.56 (≈ 3.05 µM) | 0.05 (≈ 0.0976 µM) | CCNC1CN(c2c(F)cc3c(=O)c(C(=O)O)cn(-c4nc(N)c(F)cc4F)c3c2Br)C1 [Compound 1, 1-(6-amino-3,5-difluoropyridin-2-yl)-8-bromo-7-(3-ethylaminoazetidin-1-yl)-6-fluoro-4-oxo-1,4-dihydroquinoline-3-carboxylic acid] | 0 | 0/3 | 0 | 0/3 | 0 | 0/3 | AUC(0-t) [4, 5]: 22800 ng·h/mL; Cmax [4, 5]: 4820 ng/mL; Tmax [4, 5]: 1 h; half-life [4, 5]: 3.8 h; Urinary excretion rate [4]: 19.8%; bioavailability ([4]; male, beagle, dog, serum, po, 10 mg/kg, administered orally, calculated from an AUC up to 24th hour after administration): 78%
 |  |  |  |  |  |  |  |  |  |  |  |  |  | CCNC1CN(c2c(F)cc3c(=O)c(C(=O)O)cn(-c4nc(N)c(F)cc4F)c3c2Br)C1.O=C(O)/C=C\C(=O)O [Compound 2, 1-(6-amino-3,5-difluoropyridin-2-yl)-8-bromo-7-(3-ethylaminoazetidin-1-yl)-6-fluoro-4-oxo-1,4-dihydroquino line-3-carboxylic acid maleate] |  |  |  |  |  |  | AUC(0-t) [4, 5]: 17600 ng·h/mL; Cmax [4, 5]: 3730 ng/mL; Tmax [4, 5]: 1 h; half-life [4, 5]: 4.8 h; Urinary excretion rate [4]: 17.4%
 |  | 0.025 (≈ 0.0534 µM) | 0.05 (≈ 0.107 µM) | 0.39 (≈ 0.834 µM) | 1.56 (≈ 3.33 µM) | 0.2 (≈ 0.428 µM) | 0.78 (≈ 1.67 µM) | 0.025 (≈ 0.0534 µM) | 0.013 (≈ 0.0278 µM) | 0.78 (≈ 1.67 µM) | 0.025 (≈ 0.0534 µM) | 1.56 (≈ 3.33 µM) | 0.05 (≈ 0.107 µM) | CCNC1CN(c2c(F)cc3c(=O)c(C(=O)O)cn(-c4nc(N)c(F)cc4F)c3c2Cl)C1 [Comparative Compound 2, 1-(6-amino-3,5-difluoro-pyridin-2-yl)-8-chloro-7-(3-ethylaminoazetidin-1-yl)-6-fluoro-4-oxo-1,4-dihydroquinoline-3-carboxylic acid] | 0.7 | 2/3 | 0 | 0/3 | 0 | 0/3 | 
0.06 (≈ 0.12 µM) | 0.5 (≈ 1 µM) | 0.025 (≈ 0.0502 µM) | 0.05 (≈ 0.1 µM) | 0.39 (≈ 0.783 µM) | 1.56 (≈ 3.13 µM) | 0.1 (≈ 0.201 µM) | 0.39 (≈ 0.783 µM) | 0.05 (≈ 0.1 µM) | 0.013 (≈ 0.0261 µM) | 0.39 (≈ 0.783 µM) | 0.013 (≈ 0.0261 µM) | 0.78 (≈ 1.57 µM) | 0.025 (≈ 0.0502 µM) | CNC1CN(c2c(F)cc3c(=O)c(C(=O)O)cn(-c4nc(N)c(F)cc4F)c3c2Br)C1 [Comparative Compound 1, 1-(6-amino-3,5-difluoropyridin-2-yl)-8-bromo-7-(3-methylaminoazetidin-1-yl)-6-fluoro-4-oxo-1,4-dihydroquinoline-3-carboxylic acid] | 0 | 0/3 | 0 | 0/3 | 0 | 0/3 | AUC(0-t) [4, 5]: 8540 ng·h/mL; Cmax [4, 5]: 2350 ng/mL; Tmax [4, 5]: 0.5 h; half-life [4, 5]: 2 h; Urinary excretion rate [4]: 14.8%
2 (≈ 5.53 µM) | 32 (≈ 88.6 µM) | 0.39 (≈ 1.08 µM) | 0.78 (≈ 2.16 µM) | 0.78 (≈ 2.16 µM) | 0.78 (≈ 2.16 µM) | 0.05 (≈ 0.138 µM) | 1.56 (≈ 4.32 µM) | 0.1 (≈ 0.277 µM) | 0.2 (≈ 0.553 µM) | 0.78 (≈ 2.16 µM) | 0.05 (≈ 0.138 µM) | 1.56 (≈ 4.32 µM) | 0.1 (≈ 0.277 µM) | C[C@H]1COc2c(N3CCN(C)CC3)c(F)cc3c(=O)c(C(=O)O)cn1c23 [LVFX, S(−)-9-fluoro-2,3-dihydro-3-methyl-10-(4-methyl-1-piperazinyl)-7-oxo-7H-pyrido[1,2,3-de][1,4]benzoxazine-6-carboxylic acid] |  |  |  |  |  |  | 

Structure (SMILES) | MIC [1] [µg/mL] | MIC [2] [µg/mL] | MIC (MRSA W200) [µg/mL] | MIC (S. epidermidis IFO12293) [µg/mL] | MIC (P. aeruginosa IFO3445) [µg/mL] | MIC (S. marcescens IFO3736) [µg/mL] | MIC (P. vulgaris IFO3167) [µg/mL] | MIC (E. faecalis IFO12580) [µg/mL] | MIC (B. subtilis ATCC6633) [µg/mL] | MIC (S. aureus 209P) [µg/mL] | MIC (M. luteus IFO12708) [µg/mL] | MIC (E. coli NIHJ-JC2) [µg/mL] | MIC (P. aeruginosa E-2) [µg/mL] | MIC (K. pneumoniae KC-1) [µg/mL] | Ear abnormality (point) ([3]; 0 hour after exposure) | Ear abnormality (frequency) ([3]; 0 hour after exposure) | Ear abnormality (point) ([3]; 24 hours after exposure) | Ear abnormality (frequency) ([3]; 24 hours after exposure) | Ear abnormality (point) ([3]; 48 hours after exposure) | Ear abnormality (frequency) ([3]; 48 hours after exposure) | also measured
O=C(O)c1cn(C2CC2)c2cc(N3CCNCC3)c(F)cc2c1=O [CPFX, 1-cyclopropyl-6-fluoro-7-(1-piperadinyl)-1,4-dihydro-4-oxoquinoline-3-carboxylic acid] |  |  | 0.78 (≈ 2.35 µM) | 1.56 (≈ 4.71 µM) | 0.39 (≈ 1.18 µM) | 0.2 (≈ 0.604 µM) | 0.05 (≈ 0.151 µM) | 1.56 (≈ 4.71 µM) | 0.05 (≈ 0.151 µM) | 0.2 (≈ 0.604 µM) | 3.13 (≈ 9.45 µM) | 0.025 (≈ 0.0754 µM) | 0.78 (≈ 2.35 µM) | 0.05 (≈ 0.151 µM) |  |  |  |  |  |  | 
